Reference: patent KR20100108793A, “애기뿔소똥구리로부터 분리된 항진균 활성을 가지는 코프리신 펩타이드 및 그의 용도” (대한민국(농촌진흥청장), priority 2009, dated 2010)
≈ marks a conversion by molar mass, not a printed value. Where no end group is shown, it is not given here.

How the values were obtained:
Type in all cases: cell-based
Aspergillus flavus = test: Antifungal MIC by MTT assay; conditions: 28℃, 24 h, MTT readout at 570 nm
Aspergillus fumigatus = test: Antifungal MIC by MTT assay; conditions: 28℃, 24 h, MTT readout at 570 nm
Aspergillus parasticus = test: Antifungal MIC by MTT assay; conditions: 28℃, 24 h, MTT readout at 570 nm
[1] = system: Candida albicans (TIMM 1768); test: Antifungal MIC by MTT assay; conditions: strain TIMM 1768; 28℃, 24 h, MTT readout at 570 nm
[2] = system: Candida albicans (ATCC 90028); test: Antifungal MIC by MTT assay; conditions: strain ATCC 90028; 28℃, 24 h, MTT readout at 570 nm
Candida parapsilosis = test: Antifungal MIC by MTT assay; conditions: 28℃, 24 h, MTT readout at 570 nm
Malassezia furfur = test: Antifungal MIC by MTT assay; conditions: 28℃, 24 h, MTT readout at 570 nm
Trichosporon beigelii = test: Antifungal MIC by MTT assay; conditions: 28℃, 24 h, MTT readout at 570 nm
Trichophyton rubrum = test: Antifungal MIC by MTT assay; conditions: 28℃, 24 h, MTT readout at 570 nm
Candida albicans [3] = test: Mechanism of antifungal activity (time-kill, CFU count; cidal or static); conditions: plated over time on YPD agar, 28℃, 24 h, CFU count (Fig. 2)
Human erythrocytes = test: Cytotoxicity to human erythrocytes (hemolysis); conditions: for % human erythrocyte hemolysis: 37℃, 90 min, 0.1% Triton X-100 = 100 %; for Cytotoxicity to human erythrocytes (in words): summary of Table 3
Candida albicans [4] = test: Activity on dimorphism (FBS-induced hyphae) of pathogenic fungus, microscopy; conditions: hyphae induced with 20% FBS; 37℃, 24 h; microscopy (Fig. 1)

Compound	MIC (Aspergillus flavus)	MIC (Aspergillus fumigatus)	MIC (Aspergillus parasticus)	MIC [1]	MIC [2]	MIC (Candida parapsilosis)	MIC (Malassezia furfur)	MIC (Trichosporon beigelii)	MIC (Trichophyton rubrum)	Mode of antifungal action, cidal or static (in words) (Candida albicans [3])	% human erythrocyte hemolysis (Human erythrocytes; peptide 3.13 μM)	% human erythrocyte hemolysis (Human erythrocytes; peptide 6.25 μM)	% human erythrocyte hemolysis (Human erythrocytes; peptide 12.5 μM)	% human erythrocyte hemolysis (Human erythrocytes; peptide 25 μM)	% human erythrocyte hemolysis (Human erythrocytes; peptide 50 μM)	% human erythrocyte hemolysis (Human erythrocytes; peptide 100 μM)	Cytotoxicity to human erythrocytes (in words) (Human erythrocytes)	Effect on hyphae of Candida albicans (in words) (Candida albicans [4])
CC[C@H](C)[C@H](NC(=O)CN)C(=O)NCC(=O)N[C@@H](C)C(=O)N[C@H](C(=O)N[C@@H](CC(C)C)C(=O)N[C@@H](CCCCN)C(=O)N[C@H](C(=O)N[C@@H](CC(C)C)C(=O)N[C@H](C(=O)N[C@H](C(=O)NCC(=O)N[C@@H](CC(C)C)C(=O)N1CCC[C@H]1C(=O)N[C@@H](C)C(=O)N[C@@H](CC(C)C)C(=O)N[C@H](C(=O)N[C@@H](CO)C(=O)N[C@@H](Cc1c[nH]c2ccccc12)C(=O)N[C@H](C(=O)N[C@@H](CCCCN)C(=O)N[C@@H](CCCNC(=N)N)C(=O)N[C@@H](CCCCN)C(=O)N[C@@H](CCCNC(=N)N)C(=O)N[C@@H](CCC(N)=O)C(=O)N[C@@H](CCC(N)=O)C(N)=O)[C@@H](C)CC)[C@@H](C)CC)[C@@H](C)O)[C@@H](C)O)C(C)C)C(C)C [멜리틴, reference compound]	2.5 µM (≈ 7.12 µg/mL)	2.5 µM (≈ 7.12 µg/mL)	5 µM (≈ 14.2 µg/mL)	2.5 µM (≈ 7.12 µg/mL)	5 µM (≈ 14.2 µg/mL)	5 µM (≈ 14.2 µg/mL)	1.25 µM (≈ 3.56 µg/mL)	2.5 µM (≈ 7.12 µg/mL)	5 µM (≈ 14.2 µg/mL)	효과적으로 사멸(cidal)	98%	98%	100%	100%	100%	100%	낮은 농도에서도 세포 독성이 매우 높게 나타냄	
VTCDVLSFEAKGIAVNHSACALHCIALRKKGGSCQNGVCVCRN (cysteines drawn unpaired) [코프리신]	10 µM	5 µM	10 µM	5 to 10 µM	10 µM	10 µM	5 µM	10 µM	20 µM	효과적으로 사멸(cidal)	0%	0%	0%	0%	0%	0%	고농도에서도 전혀 세포 독성을 나타내지 않음	hyphae를 효과적으로 aggregation시킴
